Test results as given in paper PMC12706794, “Identification and Characterization of a Small-Molecule Inhibitor of the Pseudomonas aeruginosa SOS Response” (ACS Infectious Diseases, 2025).
≈ marks a conversion by molar mass, not a printed value.

B1: SOS-box dsDNA (AT-repeat) (dsDNA)
DNA 1: GATGCCTGCGGATACTGTATATATATACAGTATCAATTCTGGCT
DNA 2: AGCCAGAATTGATACTGTATATATATACAGTATCCGCAGGCATC

Tests used:
[1] = tested on: P. aeruginosa PAO1; assay: Antimicrobial susceptibility testing (MIC); format: cell-based, P. aeruginosa PAO1 (ATCC 15692); settings: for MIC: Pseudomonas aeruginosa, PAO1
Description: The MIC of compound A12 and antibiotics was determined by using the Clinical Laboratory Standard Institute (CLSI) recommendations with minor modifications. […] Microplates were incubated in a humidified incubator for 18 h at 37 °C, and the bacterial growth was quantified by OD600. According to CLSI, MICs are defined as the lowest concentrations of antimicrobial agents that prevent visible growth.

[2] = biological target: T1, RecAPa*-induced FlAsH-LexAPa CTD autoproteolysis (Pseudomonas aeruginosa, UniProt P37452); assay: FP-based RecA*-induced LexA autoproteolysis in vitro assay; format: biochemical, P. aeruginosa; settings: highest concentration tested, range 0.2 to 2 mM
T1 construct: 6His-SUMO (N, cleaved yes); made in house; host or cells: E. coli BL21(DE3)
Description: A custom-made library of 318 small molecules (MW < 1000 Da) has been screened at two different concentrations (25 μg/mL and 125 μg/mL, corresponding to molar concentrations of 30–170 μM and 150–850 μM, respectively) on the P. aeruginosa SOS system by a previously validated fluorescence polμarization (FP)-based RecA*-induced LexA autoproteolysis in vitro assay. , 1 μM FlAsH-LexAPa ^CTD and 1 μM preactivated RecA*Pa were incubated with the screened chemical fragments for 1 h at 37 °C before measuring FP.
Then, the FP-based LexA autoproteolysis assay was repeated on the two hits, monitoring the full kinetics of LexA cleavage over a 1 h incubation and exploring a wide range of drug concentrations (10–1000 μM).
A custom-made library of 318 chemical fragments (25 mg/mL stock solutions in DMSO), provided by P. Kavaliauskas (Weill Cornell Medicine of Cornell University) was screened in vitro for their ability to inhibit RecAPa*-mediated LexAPa autoproteolysis by a Fluorescence Polarization (FP)-based assay. , Twenty microliter reactions were set up in Nunc 384-Well Black microplates, and final reaction mixtures included 1 μM FlAsH-LexAPa ^CTD, the compounds (5% v/v DMSO in all the samples, including the controls devoid of compounds), and 1 μM RecAPa* (FP Buffer in the negative control; 30 mM Hepes, 150 mM NaCl, pH 7.1). The initial screening was performed with two dilutions of the compounds (25 and 125 μg/mL). The FP signal was measured after a 1 h incubation at 37 °C by an EnVision MultiMode Plate Reader (PerkinElmer) equipped with opportune FP filters and mirrors. To obtain LexAPa ^CTD autoproteolysis percent inhibition, FP data were scaled from 0% (corresponding to the positive control sample) to 100% (negative control).
Compounds displaying an inhibition of at least 50% at the highest concentration and a rather consistent increase in activity at the two tested concentrations were selected as the hits.
The same FP assay was carried out on serial dilutions of selected compounds to determine the dose–response relationship. To evaluate the effect of a reducing environment, 2 mM Tris(2-carboxyethyl)-phosphine (TCEP) was added to the reaction mixtures. The FP signal of FlAsH-LexAPa ^CTD alone was detected for 5 min before adding the compounds. The system was monitored for an additional 5 min in the presence of the tested compounds in order to observe potential aggregation events. Then, RecAPa* was added, and the autoproteolysis reaction was followed for 1 h at 37 °C (1 reading per minute). FlAsH-LexAPa ^CTD autoproteolysis percent inhibition was calculated as mentioned above and plotted as a function of compound concentration. Experimental data fitting was performed with GraphPad Prism 8 to obtain the absolute IC50.

[3] = tested on: P. aeruginosa PAO1 on THP-1-derived macrophages; assay: P. aeruginosa PAO1 colonization of THP-1-derived macrophages; format: cell-based; settings: single agent: ciprofloxacin 0.5 μg/mL or A12 100 μg/mL; 3 h infection
Description: THP-1-derived macrophages were generated from THP-1 monocytes as previously described, with minor modifications. , Briefly, THP-1 monocytes were washed three times with antibiotic-free RPMI 1640 medium and resuspended in complete antibiotic-free RPMI 1640 supplemented with 300 nM phorbol 12-myristate 13-acetate (PMA). Cells were incubated for 24 h, followed by a 48 h rest period in PMA-free RPMI 1640 prior to use in subsequent experiments. […] PMA-differentiated THP-1-derived macrophages were similarly trypsinized and seeded into 24-well plates at 5 × 10^5 cells/well in complete, antibiotic-free RPMI supplemented with FBS. Cells were incubated overnight to allow for attachment. Immediately prior to infection, the medium was aspirated, and cells were washed three times with Dulbecco’s phosphate-buffered saline. […] Infection was synchronized by centrifuging plates at 1000g for 1 min. […] Following the infection period, the medium was aspirated, and cells were washed three times with DPBS to remove unattached bacteria and residual test compounds. […] In both cases, the resulting lysates were serially diluted in DPBS and plated on tryptic soy agar plates. Plates were incubated at 37 °C for 24 h, after which colonies were enumerated. Bacterial burden was expressed as the CFU per well.

[4] = biological target: LexAPa S125A (uncleavable mutant) (Pseudomonas aeruginosa ATCC 27853, UniProt P37452 1-204, S125A); assay: EMSA; no A12, 10% DMSO; 8 uM LexA, 1 uM DNA; settings: protein: recombinant; chain copies: 2; blunt
[5] = A12 (32 μg/mL) (+), in combination

Row | Molecule | MIC on P. aeruginosa PAO1 [1, 5] | MIC ([1]; A12 (32 μg/mL) (−)) | also measured
1 | Gentamycin | 2 µg/mL | – | MIC on P. aeruginosa PAO1 ([1]; A12 (32 μg/mL) (−)): 2 µg/mL
2 | O=C(O)CCNc1ccccc1CCc1ccccc1NCCC(=O)O [BG-191, 3,3′-((ethane-1,2-diylbis(2,1-phenylene))bis(azanediyl))dipropionic acid] | – | – | LexAPa autocleavage percent inhibition of A12 derivatives [2]: 20%
3 | CN(C)[C@@H]1C(O)=C(C(N)=O)C(=O)[C@@]2(O)C(O)=C3C(=O)c4c(O)cccc4[C@@](C)(O)[C@H]3C[C@@H]12 [Tetracycline] | 4 µg/mL | 4 µg/mL (≈ 9 µM) | –
4 | O=C(O)c1cn(C2CC2)c2cc(N3CCNCC3)c(F)cc2c1=O [Ciprofloxacin, reference compound] | – | – | Total (adherent + intracellular) burden of PAO1 on THP-1-derived macrophages [3]: diminished
5 | COc1c(N2C[C@@H]3CCCN[C@@H]3C2)c(F)cc2c(=O)c(C(=O)O)cn(C3CC3)c12 [Moxifloxacin] | – | 0.0312 µg/mL (≈ 0.0777 µM) | –
6 | C[C@H]1COc2c(N3CCN(C)CC3)c(F)cc3c(=O)c(C(=O)O)cn1c23 [Levofloxacin] | 0.125 µg/mL | 0.0625 µg/mL (≈ 0.173 µM) | –
7 | CO/N=C(\C(=O)N[C@@H]1C(=O)N2C(C(=O)O)=C(CSc3nc(=O)c(=O)[nH]n3C)CS[C@H]12)c1csc(N)n1 [Ceftriaxone] | 8 µg/mL | 8 µg/mL (≈ 14.4 µM) | –
8 | CC(CC(=O)O)Nc1ccccc1CCc1ccccc1NC(C)CC(=O)O (stereo not shown) [BG-194, 3,3′-((ethane-1,2-diylbis(2,1-phenylene))bis(azanediyl))dibutyric acid] | – | – | LexAPa autocleavage percent inhibition of A12 derivatives [2]: did not display any inhibitory activity
9 | B1 | – | – | binding result [4]: binds
